Earlier results in US9006451B1, “2-anilinonicotinyl based chalcones useful as potential anticancer agents and process for preparation thereof” (Council of Scientific and Industrial Research, priority 2013, dated 2015).

Tested on: breast cancer cell line MCF7
Conditions: cited from earlier work

COc1ccc(C(=O)/C=C/c2c(OC)cccc2OC)c(OC)c1 [B, (E)-1-(2,4-dimethoxyphenyl)-3-(2,6-dimethoxyphenyl)prop-2-en-1-one]
IC50 (J. Med. Chem. 2008, 51, 2307-2310, read-out: IC50 against breast cancer cell line MCF7): 75 µM | GI50 (known chalcone, literature value): 75 µM
